From patent publication US20030032612A1 (priority 1997, published 2003) come the findings set out here.

Values joined by “and” are separate entries in the source; they are usually repeats but may differ in a detail not shown here. Equal values may be shown once.

Common to all, as to assay type: cell-based, E. coli
The test system of assay [1] is AG 102 mar mutant. The assay can be described thus: Gradient plate assay, MIC of antibiotics in AG 102 with plasmids. The conditions noted are these: Escherichia coli. The procedure: To establish further the inhibitory efficacy of antisense marA sequences, KMN23 (the same DNA vector described above, containing both the marR and the marA genes cloned in the antisense direction) was also expressed in the presence of various antibiotics (tetracycline (Tet), chloramphenicol (Cml), ampicillin (Amp) and rifampicin (Rif). The effect of KMN23 was assessed by measuring cell growth inhibition by the gradient plate method as described in Example 9. The results are shown in TABLE 3.
(§1) Bacterial susceptibility to tetracycline hydrochloride, chloramphenicol, ampicillin, kanamycin, rifampin, nalidixic acid and norfloxacin was assayed by the gradient plate method. (Microbiology: Including Immunology and Molecular Genetics (3rd ed.)(Davis et al. eds.(1980)J. P. Lippincott Co., Philadelphia, Pa.).

Assay [2] concerns ML308-C2. The assay can be described thus: MIC on antibiotic gradient plates in Mar mutant ML308-C2. The conditions noted are these: Escherichia coli, read-out: MIC of norfloxacin. The procedure:
Antibiotic resistant mutants of ML308-225 (Rahman et al. (1991) Antisense Res. Dev. 1:319-327) were grown and maintained at 30° C. in LB broth. These mutants were selected by spreading washed overnight cultures onto a LB agar plate containing chloramphenicol (5 μg/ml, Sigma, St. Louis, Mo.) and incubated at 30° C for 48-72 hours. Single colonies appearing after 48 hours were picked for further study.
One mutant showing increased minimal inhibitory concentrations (hereinafter referred to as MIC) to tetracycline, chloramphenicol, ampicillin, nalidixic acid, and norfloxacin was selected and designated ML308-C2. Sequencing confirmed a C® T substitution in amino acid 117 of marR, which results in a truncated MarR protein. […] Northern analysis using a marA DNA probe confirmed that ML308-C2 over expresses marA and was a Mar mutant (unpublished data).
as §1

For assay [3], the system named is ML308-225-C2 (Mar mutant). Put plainly: Augmentation of bactericidal activity of norfloxacin by oligonucleotides, colony counts.

On to `CN(C)[C@@H]1C(O)=C(C(N)=O)C(=O)[C@@]2(O)C(O)=C3C(=O)c4c(O)cccc4[C@@](C)(O)[C@H]3C[C@@H]12` [Tet, tetracycline], for which, in assay [1], the minimum inhibitory concentration (MIC) (as a rule, the lowest concentration found to suppress growth) was 12.5 µg/mL.
As for `CCn1cc(C(=O)O)c(=O)c2cc(F)c(N3CCNCC3)cc21` [Norfloxacin, norfloxacin], the minimal inhibitory concentration (MIC) in assay [2] was 0.5 µg/mL. Also, the activity at 0.5 µg/mL in assay [3] (Escherichia coli, norfloxacin 0.5 µg/mL alone, 1 hour, Table 5, read-out: % OF CONTROL (untreated cells)) turned out to be 65%. In assay [3] (norfloxacin 0.5 μg/ml alone, oligo 1284 0 μM, duplicate experiments), the “% OF CONTROL CELLS” value is 71% and 57%.
With `CO[C@H]1/C=C/O[C@@]2(C)Oc3c(C)c(O)c4c(O)c(c(/C=N/N5CCN(C)CC5)c(O)c4c3C2=O)NC(=O)/C(C)=C\C=C\[C@H](C)[C@H](O)[C@@H](C)[C@@H](O)[C@@H](C)[C@H](OC(C)=O)[C@@H]1C` [Rif, rifampicin], the MIC in assay [1] stood at 8.8 µg/mL.
Consider `O=C(N[C@H](CO)[C@H](O)c1ccc([N+](=O)[O-])cc1)C(Cl)Cl` [Cml, chloramphenicol], for which the minimum inhibitory concentration (MIC) in assay [1] stood at 34.2 µg/mL.
The same measure, in the same setting: under `CC1(C)S[C@@H]2[C@H](NC(=O)[C@H](N)c3ccccc3)C(=O)N2[C@H]1C(=O)O` [Amp, ampicillin] stands 17.7 µg/mL.
